Results reported in patent US10766895B2 (Zhejiang Huahai Pharmaceutical Co., Ltd., priority 2015, dated 2020).

What was measured:
[1] = Comparative Example 1: heating palbociclib free base in n-butanol and anisole (method of WO2014128588A1); format: physicochemical; settings: n-butanol (16 ml/g) and anisole (24 ml/g), heated to 95-100° C.
Excerpt: The seed crystal of crystal form A was required to be added into the reaction system to obtain a crystal form A of palbociclib free base.

[2] = all of organic solvents; cited from earlier work

CC(=O)c1c(C)c2cnc(Nc3ccc(N4CCNCC4)cn3)nc2n(C2CCCC2)c1=O [palbociclib free base, 6-acetyl-8-cyclopentyl-5-methyl-2-[[5-(piperazine-1-yl)pyridine-2-yl]amino]-8H-pyrido[2,3-D]pyrimidine-7-ketone]
Solubility on heating [1]: remained insoluble | Solubility in organic solvents [2]: very poor solubility
